Reference: patent US7468384B2, “Microbicidal composition” (Rohm and Haas Company, priority 2004, dated 2008)

Experiments:
Format in all cases: cell-based
[1] = system: Candida albicans (C. albicans—ATCC 10231); experiment: Synergy test, microtiter plate high resolution MIC assay, yeast; conditions: C. albicans 10231, PDB; for Qa: BIT concentration giving end point (MIC); for Qa (BIT at end point, MIC): alone where Qb = 0
Summary of the method: (§1)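 Broth microdilution MICs (PDB for C. albicans and A. niger, 5×10^5 fungi/mL; TSB or M9GY for P. aeruginosa, ~5×10^6 bacteria/mL), combinations across 2–10,000 ppm active.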

[2] = system: Pseudomonas aeruginosa (P. aeruginosa—ATCC #15442); experiment: Synergy test, microtiter plate high resolution MIC assay, bacterium; set-up: key to SI (calculated synergy index) / SI (synergy index): SI = Qa/QA + Qb/QB (mixture vs. alone end-point concentrations); conditions: P. aeruginosa 15442, M9GY; for Qa: BIT concentration giving end point (MIC); for Qa (BIT at end point, MIC): alone where Qb = 0
Summary of the method: as §1

[3] = system: Aspergillus niger (A. niger—ATCC 16404); experiment: Synergy test, microtiter plate high resolution MIC assay, mold; set-up: key to SI (calculated synergy index) / SI (synergy index): SI = Qa/QA + Qb/QB (mixture vs. alone end-point concentrations); conditions: A. niger 16404, PDB; for Qa: BIT concentration giving end point (MIC); for Qa (BIT at end point, MIC): alone where Qb = 0
Summary of the method: as §1

[4] = system: Escherichia coli (E. coli—ATCC #8739); experiment: Synergy test, microtiter plate high resolution MIC assay, bacterium; conditions: E. coli 8739, M9GY; for Qa: BIT concentration giving end point (MIC); for Qa (BIT at end point, MIC): alone where Qb = 0
Summary of the method: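 Synergy against Escherichia coli ATCC #8739 was assessed in standard microtiter plates with M9GY medium, a minimal salt medium supplemented with 0.2% glucose and 0.1% yeast extract. The inoculum was about 5×10^6 bacteria per mL. MICs for each agent alone and in mixtures were combined into a synergy index, Qa/QA+Qb/QB.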

[5] = alone or mixed with benzyl alcohol, 48 hours
[6] = alone or mixed with caprylyl glycol, 24 hours
[7] = alone or mixed with glutaraldehyde, 24 hours
[8] = Table 24, BIT with Cis-1-(3-chloroallyl)-3,5,7-triaza-1-azoniaadamantane chloride, 24 hours
[9] = Table 25, BIT with sodium dehydroacetic acid, 24 hours
[10] = synergy index BIT + benzyl alcohol, 48 hours
[11] = synergy index BIT + caprylyl glycol, 24 hours
[12] = synergy index BIT + glutaraldehyde, 24 hours
[13] = alone or mixed with Imidalozidinyl urea, 48 hours
[14] = alone or mixed with diazolidinyl urea, 48 hours
[15] = Table 26, BIT with sodium benzoate, 24 hours
[16] = synergy index BIT + Imidalozidinyl urea, 48 hours
[17] = synergy index BIT + diazolidinyl urea, 48 hours

O=c1[nH]sc2ccccc12 [BIT, 1,2-benzisothiazolin-3-one]
1.33: SI (synergy index) ([2]; Table 23, 24 hours)
30 ppm: Qa ([1]; alone or mixed with Imidalozidinyl urea, 24 hours) | Qa [1, 5] | Qa [1, 6] | Qa ([1]; alone or mixed with diazolidinyl urea, 24 hours) | Qa [1, 7] | Qa (BIT at end point, MIC) [1, 9] | Qa (BIT at end point, MIC) ([1]; Table 26, BIT with sodium benzoate, 48 hours) | Qa ([3]; alone or mixed with methylparaben, 4 days) | Qa: end-point activity (MIC) of BIT in the mixture (BIT alone, QA, where Qb = 0) ([3]; Table 8, 1 week, B = Benzalkonium chloride) | Qa: end-point activity (MIC) of BIT in the mixture (BIT alone, QA, where Qb = 0) ([3]; Table 9, 4 days, B = Benzethonium chloride) | Qa (BIT at end point, MIC) ([3]; Table 21, BIT with Linoleamidopropyl PG-dimonium chloride phosphate, 4 days) | Qa (BIT at end point, MIC) ([3]; Table 22, BIT with Cocamidopropyl PG-dimonium chloride phosphate, 1 week) | Qa (BIT at end point, MIC) ([3]; Table 24, BIT with Cis-1-(3-chloroallyl)-3,5,7-triaza-1-azoniaadamantane chloride, 3 days) | Qa (BIT at end point, MIC) ([3]; Table 25, BIT with sodium dehydroacetic acid, 1 week) | Qa (BIT at end point, MIC) ([3]; Table 26, BIT with sodium benzoate, 1 week) | Qa (BIT at end point, MIC) ([3]; Table 28, BIT with zinc pyrithione, 1 week)
10 ppm: Qa [4, 7] | Qa (BIT at end point, MIC) ([4]; Table 24, BIT with Cis-1-(3-chloroallyl)-3,5,7-triaza-1-azoniaadamantane chloride, 48 hours)
50 ppm: Qa ([3]; alone or mixed with benzyl alcohol, 1 week) | Qa ([3]; alone or mixed with caprylyl glycol, 1 week) | Qa ([3]; alone or mixed with chlorphenesin, 1 week)
60 ppm: Qa ([2]; alone or mixed with glutaraldehyde, 48 hours) | Qa (BIT at end point, MIC) [2, 8] | Qa (BIT at end point, MIC) [2, 9] | Qa (BIT at end point, MIC) [2, 15] | Qa (BIT at end point, MIC) ([2]; Table 27, BIT with Sodium hydroxymethylglycinate, 24 hours)
8 ppm: Qa [4, 14]
7.5 ppm: Qa [4, 13] | Qa ([4]; alone or mixed with benzyl alcohol, 24 hours) | Qa [4, 6] | Qa (BIT at end point, MIC) [4, 9] | Qa (BIT at end point, MIC) [4, 15]
20 ppm: Qa (BIT at end point, MIC) [1, 8] | Qa ([3]; alone or mixed with 2,2′-dithiobis(N-methylbenzamide), 3 days) | Qa ([3]; alone or mixed with EDTA, 4 days) | Qa ([3]; alone or mixed with Imidalozidinyl urea, 3 days) | Qa ([3]; alone or mixed with diazolidinyl urea, 3 days) | Qa ([3]; alone or mixed with ethylparaben, 3 days) | Qa ([3]; alone or mixed with glutaraldehyde, 3 days) | Qa ([3]; alone or mixed with phenoxyethanol, 3 days) | Qa (BIT at end point, MIC) ([3]; Table 23, BIT with propylparaben, 3 days) | Qa (BIT at end point, MIC) ([3]; Table 27, BIT with Sodium hydroxymethylglycinate, 3 days)
80 ppm: Qa (BIT at end point, MIC) ([2]; Table 23, BIT with propylparaben, 24 hours)
1.00: SI (synergy index) ([1]; Table 24, 24 hours) | SI (synergy index) ([1]; Table 25, 24 hours) | SI (synergy index) ([1]; Table 26, 48 hours) | SI ([1]; synergy index BIT + Imidalozidinyl urea, 24 hours) | SI [1, 10] | SI [1, 11] | SI ([1]; synergy index BIT + diazolidinyl urea, 24 hours) | SI [1, 12] | SI (calculated synergy index) ([2]; Table 8, 48 hours) | SI (calculated synergy index) ([2]; Table 9, 48 hours) | SI (synergy index) ([2]; Table 21, 48 hours) | SI (synergy index) ([2]; Table 22, 72 hours) | SI (synergy index) ([2]; Table 24, 24 hours) | SI (synergy index) ([2]; Table 25, 24 hours) | SI (synergy index) ([2]; Table 26, 24 hours) | SI (synergy index) ([2]; Table 27, 24 hours) | SI (synergy index) ([2]; Table 28, 48 hours) | SI ([2]; synergy index BIT + 2,2′-dithiobis(N-methylbenzamide), 48 hours) | SI [2, 16] | SI [2, 10] | SI [2, 11] | SI ([2]; synergy index BIT + chlorphenesin, 72 hours) | SI [2, 17] | SI ([2]; synergy index BIT + ethylparaben, 48 hours) | SI ([2]; synergy index BIT + glutaraldehyde, 48 hours) | SI ([2]; synergy index BIT + methylparaben, 48 hours) | SI ([2]; synergy index BIT + phenoxyethanol, 48 hours) | SI (calculated synergy index) ([3]; Table 8, 1 week) | SI (calculated synergy index) ([3]; Table 9, 4 days) | SI (synergy index) ([3]; Table 21, 4 days) | SI (synergy index) ([3]; Table 22, 1 week) | SI (synergy index) ([3]; Table 23, 3 days) | SI (synergy index) ([3]; Table 24, 3 days) | SI (synergy index) ([3]; Table 25, 1 week) | SI (synergy index) ([3]; Table 26, 1 week) | SI (synergy index) ([3]; Table 27, 3 days) | SI (synergy index) ([3]; Table 28, 1 week) | SI ([3]; synergy index BIT + 2,2′-dithiobis(N-methylbenzamide), 3 days) | SI ([3]; synergy index BIT + EDTA, 4 days) | SI ([3]; synergy index BIT + Imidalozidinyl urea, 3 days) | SI ([3]; synergy index BIT + benzyl alcohol, 1 week) | SI ([3]; synergy index BIT + caprylyl glycol, 1 week) | SI ([3]; synergy index BIT + chlorphenesin, 1 week) | SI ([3]; synergy index BIT + diazolidinyl urea, 3 days) | SI ([3]; synergy index BIT + ethylparaben, 3 days) | SI ([3]; synergy index BIT + glutaraldehyde, 3 days) | SI ([3]; synergy index BIT + methylparaben, 4 days) | SI ([3]; synergy index BIT + phenoxyethanol, 3 days) | SI (synergy index) ([4]; Table 24, 48 hours) | SI (synergy index) ([4]; Table 25, 24 hours) | SI (synergy index) ([4]; Table 26, 24 hours) | SI [4, 16] | SI ([4]; synergy index BIT + benzyl alcohol, 24 hours) | SI [4, 11] | SI [4, 17] | SI [4, 12]
100 ppm: Qa ([2]; alone or mixed with 2,2′-dithiobis(N-methylbenzamide), 48 hours) | Qa [2, 13] | Qa [2, 5] | Qa [2, 6] | Qa ([2]; alone or mixed with chlorphenesin, 72 hours) | Qa [2, 14] | Qa ([2]; alone or mixed with ethylparaben, 48 hours) | Qa ([2]; alone or mixed with methylparaben, 48 hours) | Qa ([2]; alone or mixed with phenoxyethanol, 48 hours) | Qa: end-point activity (MIC) of BIT in the mixture (BIT alone, QA, where Qb = 0) ([2]; Table 8, 48 hours, B = Benzalkonium chloride) | Qa: end-point activity (MIC) of BIT in the mixture (BIT alone, QA, where Qb = 0) ([2]; Table 9, 48 hours, B = Benzethonium chloride) | Qa (BIT at end point, MIC) ([2]; Table 21, BIT with Linoleamidopropyl PG-dimonium chloride phosphate, 48 hours) | Qa (BIT at end point, MIC) ([2]; Table 22, BIT with Cocamidopropyl PG-dimonium chloride phosphate, 72 hours) | Qa (BIT at end point, MIC) ([2]; Table 28, BIT with zinc pyrithione, 48 hours)
